Assay results as given in US11007250B2, “Methods and kits for treating pain” (Duke University, priority 2017, dated 2021).

Tests used:
[1] = test system: naive mice; assay: Basal pain in naive mice (von Frey test, spontaneous pain); type: in vivo, mouse; conditions: RMP1-14 5 μg, Nivolumab 10 μg
[2] = test system: small-diameter neurons of whole-mount DRG; assay: Whole-cell patch clamp recordings in whole mount DRGs ex vivo; type: cell-based, mouse; conditions: WT whole mount DRG; sPD-1 30 ng/ml, Nivolumab 300 ng/ml
Method: Whole-cell patch clamp recordings in whole mount DRGs of mice ex vivo. L4-L5 DRGs were carefully removed 4 days after sham surgery or CCI surgery and placed in cold oxygenated ACSF. The connective tissue was gently removed under a microscope and the ganglia were digested with a mixture of 0.4 mg/mL trypsin (Sigma) and 1.0 mg/ml type-A collagenase (Sigma) for 30 min at 37° C. The intact ganglia were then incubated in ACSF oxygenated with 95% O2 and 5% CO2 at 28° C. for at least 1 h before transferring them to the recording chamber. DRG neurons were visualized with a 40× water-immersion objective using a BX51WI microscope (Olympus). Whole-cell current and voltage recordings were acquired with an Axon700B amplifier. Patch pipettes (4-7 MO) were pulled from borosilicate glass capillaries on P-97 puller. The recording chamber (300 μl) was continuously superfused (3-4 ml/min). Series resistance was compensated for (>80%), and leak subtraction was performed. The pipette solution contained (in mM): 140 KCl, 2 MgCl2, 10 Hepes, 2 Mg-ATP, pH 7.4. Osmolarity was adjusted to 290-300 mOsm. Data was acquired with a Digidata 1322A acquisition system (molecular devices) using pCLAMP 9.0 software. Signals were low-pass filtered at 5 kHz, sampled at 10 kHz and analyzed offline.

[3] = test system: afferent fibers in sciatic nerve of melanoma-bearing mice; assay: Spontaneous discharge recordings in mouse sciatic nerve in vivo; conditions: i.v. Nivolumab 10 mg/kg, MCI-4w, 3 h after injection
Excerpt: Spontaneous discharge recordings in mouse sciatic nerve in vivo. Adult male mice (25-32 g) were anaesthetized with urethane (1.5 g/kg, i.p.) and monitored for loss of hind paw pinch reflex with additional injections of urethane (0.2 g/kg). The animals were artificially ventilated with oxygen on a respirator. The left thigh was shaved and an incision made parallel to the femur. The muscle was parted by blunt forceps dissection to expose the sciatic nerve proximal to the trifurcation. A cuff electrode (Microprobes) was placed loosely around the full circumference of the sciatic nerve. Skin flaps were raised to enclose a pool of mineral oil that covered the exposed regions of nerve. The spontaneous discharges in the sciatic nerve were recorded with a microelectrode AC amplifier (1800, A-M systems), filtered (low cut-off 100 Hz and hi cut-off 20 kHz) and digitized at 20 kHz (Digidata 1440A, Molecular Devices). Data were stored with a personal computer using pCLAMP 10 software and analyzed with Offline Sorter software (Plexon, Dallas, Tex.) and Origin pro 8.0 (Origin Lab). The spikes of sciatic nerve were characterized as previously reported (Xu, Z Z, et al. 2015).

[4] = test system: mice; assay: Tail-flick and hot-plate tests of morphine antinociception; type: in vivo, mouse
Method: Tail-flick test. All animals were habituated to testing environment for at least 2 days before baseline testing. Mice were gently held by a hand with a terry glove and with tails exposed. The distal 3 cm of the tail was immersed into the 50° C. hot water. The tail-flick latency was the time required for a mouse to flick or remove its tail out of the water. A maximum cut-off value of 15 seconds was set to avoid thermal injury. Tail-flick latency was determined both before and after drug injection. Data are expressed as the maximum possible effect (MPE) calculated as MPE (%)=100×[(postdrug response baseline response)/(cutoff response−baseline response)]. The MPE (%) data from each animal were converted to area under the curve (AUC).
Hot-plate test. All animals were habituated to testing environment for at least 2 days before baseline testing. […] A maximum cut-off value of 40 seconds was set to avoid tissue injury. Data are expressed as the maximum possible effect (MPE) calculated as MPE (%)=100×[(postdrug response−baseline response)/(cutoff response−baseline response)]. The MPE (%) data from each animal were converted to area under the curve (AUC).

[5] = test system: mice with LLC bone cancer; assay: Bone cancer pain model, Lewis lung cancer (LLC) cells in tibia; type: in vivo, mouse; conditions: Nivolumab 10 mg/kg IV on day 0, 3, 7, 10, 14
Excerpt: (B) Cancer pain, as measured by mechanical pain sensitivity (paw withdrawal threshold) in von Frey test. (C) Mechanical allodynia (paw withdrawal frequency to a subthreshold filament, 0.4 g) in von Frey test. (D) Cold allodynia (lifting and licking time) in acetone test. (E) Heat hyperalgesia (paw withdrawal latency) in Hargreaves test. (B-E) n=9-11 mice in each group; Two-way ANOVA with Bonferroni's hoc-test; *P<0.05, compared with baseline; #P<0.05, compared with Saline group.

[6] = test system: tibia bone of mice with LLC bone cancer; assay: X-ray bone destruction score in LLC bone cancer model; type: in vivo, mouse; conditions: Nivolumab 10 mg/kg IV; scores 8, 11 and 15 days after tumor inoculation
Method: FIG. 27. Intravenous injections of Nivolumab protect against bone destruction after tumor inoculation. […] (B) X-ray images showing tibia bones 11 days after tumor inoculation. Arrows show bone destruction in saline-treated animals. (C) Bone destruction scores 8, 11, and 15 days after tumor inoculation. The scores were assessed as follows: Score 0, normal bone with no signs of destruction; Scorel, small radiolucent lesions indicative of bone destruction (one to three lesions); Score 2, increased number of lesions (three to six lesions) and loss of medullary bone; Score 3, loss of medullary bone and erosion of cortical bone; Score 4, full-thickness unicortical bone loss; Score 5, full-thickness bicortical bone loss and displaced skeletal fracture. n=9-11 in each group, male, 8-10 weeks; Two-way ANOVA with Bonferroni's hoc-test; *P<0.05, compared with baseline; #P<0.05, compared with Saline group; Scores n were shown by the arrows in B.
Since cancers often become painful after metastasis to bone tissue, we examined the role of PD-1 in a bone cancer pain model following inoculation of Lewis lung cancer (LLC) cells into tibia bone cavity. […]

Nivolumab: FDA-approved fully humanized IgG4 monoclonal anti-PD-1 antibody, Bristol-Myers Squibb
effect on PD-L1's analgesic effects ([1]; antibody i.pl. 30 min prior to PD-L1 (5 μg, i.pl.)): blocked | duration of mechanical allodynia in naive mice ([1]; i.pl., sPD-1 5 μg): 5 h | mechanical allodynia in naive mice ([1]; i.pl., sPD-1 5 μg): marked mechanical allodynia | firing rate of action potentials [2]: increased the firing rate | spontaneous discharges in nerve fibers [3]: significantly increased spontaneous discharges | analgesic effect of morphine after Nivolumab ([4]; Nivolumab 10 mg/kg i.v. 30 min before morphine 10 mg/kg s.c.): reduced analgesic effect | pain sensitivity, given with saline ([4]; Nivolumab 10 mg/kg i.v. 30 min before s.c. saline): greater sensitivity to pain | cancer pain days after each treatment [5]: sustained beneficial effects on cancer pain relief | tibia bone destruction during cancer progression (X-ray) [6]: protected
